Reference: ChEMBL document CHEMBL1221408, “Cylindrocyclophanes with proteasome inhibitory activity from the Cyanobacterium Nostoc sp” (J Nat Prod, 2010)

Assays:
HT-29 = test: Cytotoxicity against human HT-29 cells; assay type: functional, cell-based
[1] = Inhibition of 20S proteasome

| SMILES | EC50 (HT-29) | IC50 [1] |
| --- | --- | --- |
| CCCC[C@H]1CCCC[C@H](C)[C@@H](O)c2cc(O)c(c(O)c2)[C@@H](CCCC(Cl)Cl)CCCC[C@H](C)[C@@H](O)c2cc(O)c1c(O)c2 [CYLINDROCYCLOPHANE A2] | 1700 nM | 2550 nM |
| C[C@H]1CCCC[C@H](CCCC(Cl)Cl)c2c(O)cc(cc2O)C[C@@H](C)CCCC[C@H](CCCC(Cl)Cl)c2c(O)cc(cc2O)C1 [CYLINDROCYCLOPHANE F4] |  | 44800 nM |
| C[C@H]1CCCC[C@H](CCCCCl)c2c(O)cc(cc2O)[C@H](O)[C@@H](C)CCCC[C@H](CCCC(Cl)Cl)c2c(O)cc(cc2O)[C@@H]1O [CYLINDROCYCLOPHANE A3] | 500 nM | 2750 nM |
| CCCC[C@H]1CCCC[C@H](C)[C@@H](O)c2cc(O)c(c(O)c2)[C@@H](CCCCCl)CCCC[C@H](C)[C@@H](O)c2cc(O)c1c(O)c2 [CYLINDROCYCLOPHANE A1] |  | 27600 nM |
| C[C@H]1CCCC[C@H](CCCC(Cl)Cl)c2c(O)cc(cc2O)[C@H](O)[C@@H](C)CCCC[C@H](CCCC(Cl)Cl)c2c(O)cc(cc2O)C1 [CYLINDROCYCLOPHANE C4] | 2800 nM | 11200 nM |
| CCCC[C@H]1CCCC[C@H](C)Cc2cc(O)c(c(O)c2)[C@@H](CCCC)CCCC[C@H](C)[C@@H](O)c2cc(O)c1c(O)c2 [CYLINDROCYCLOPHANE C] |  | 59300 nM |
| C[C@H]1CCCC[C@H](CCCC(Br)Br)c2c(O)cc(cc2O)[C@H](O)[C@@H](C)CCCC[C@H](CCCC(Br)Br)c2c(O)cc(cc2O)[C@@H]1O [CYLINDROCYCLOPHANE AB4] | 500 nM | 2230 nM |
| CCCC[C@H]1CCCC[C@H](C)[C@@H](O)c2cc(O)c(c(O)c2)[C@@H](CCCC)CCCC[C@H](C)[C@@H](O)c2cc(O)c1c(O)c2 [CYLINDROCYCLOPHANE A] |  | 33900 nM |
| CCCC[C@H]1CCCC[C@H](C)Cc2cc(O)c(c(O)c2)[C@@H](CCCC)CCCC[C@H](C)Cc2cc(O)c1c(O)c2 [CYLINDROCYCLOPHANE F] |  | > 100000 nM |
| CCCC[C@H]1CCCC[C@H](C)Cc2cc(O)c(c(O)c2)[C@@H](CCCC(Cl)Cl)CCCC[C@H](C)[C@@H](O)c2cc(O)c1c(O)c2 [CYLINDROCYCLOPHANE C2] | 900 nM | 22800 nM |
| C[C@H]1CCCC[C@H](CCCC(Cl)Cl)c2c(O)cc(cc2O)[C@H](O)[C@@H](C)CCCC[C@H](CCCC(Cl)Cl)c2c(O)cc(cc2O)[C@@H]1O [CYLINDROCYCLOPHANE A4] | 2000 nM | 3930 nM |
